Work on `Cc1ccc(C2=Cc3cc(C(=O)Nc4ccc(CN(C)C5CCOCC5)cc4)ccc3OC2)cc1` [Compound 22, 3-(4-methylphenyl)-N-[4-[N-methyl-N-(tetrahydropyran-4-yl)aminomethyl]phenyl]-2H-1-benzopyran-6-carboxamide] yielded a melting point of 230 to 235 °C. `CN(Cc1ccc(NC(=O)C2=Cc3cc(OCc4ccccc4Cl)ccc3S(=O)(=O)CC2)cc1)C1CCOCC1` [Compound 103, 7-[(2-chlorobenzyl)oxy]-N-[4-[[N-methyl-N-(tetrahydropyran-4-yl)amino]methyl]phenyl]-1,1-dioxo-2,3-dihydro-1-benzothiepine-4-carboxamide] gave a melting point of 205 to 207 °C. With `Cc1ccc(-c2cncc(/C=C/C(=O)N[C@H]3CC[C@H](CN(C)C4CCOCC4)CC3)c2)cc1` [Compound 73, (trans, E)-3-[5-(4-methylphenyl)pyridin-3-yl]-N-[4-[N-methyl-N-(tetrahydropyran-4-yl)aminomethyl]cyclohexyl]acrylamide] the melting point was 233 to 236 °C. In the case of `Cc1ccc(-c2ccc3c(c2)C=C(C(=O)N[C@H]2CC[C@H](CN(C)C4CCOCC4)CC2)CO3)cc1` [Compound 67, trans-6-(4-methylphenyl)-N-[4-[N-methyl-N-(tetrahydropyran-4-yl)aminomethyl]cyclohexyl]-2H-1-benzopyran-3-carboxamide], the melting point is reported as 141 to 143 °C. For `CCOCCCc1ccc(Oc2ccc3c(c2)C=C(C(=O)Nc2ccc(CN(C)C4CCOCC4)cc2)CCS3(=O)=O)cc1` [Compound 125, 7-[4-(3-ethoxypropyl)phenoxy]-N-[4-[[N-methyl-N-(tetrahydro-2H-pyran-4-yl)amino]methyl]phenyl]-1,1-dioxo-2,3-dihydro-1-benzothiepine-4-carboxamide], the melting point was 156 to 157 °C. `Cc1ccc(-c2coc(/C=C/C(=O)N[C@H]3CC[C@H](CN(C)C4CCOCC4)CC3)c2)cc1` [Compound 74, (trans, E)-3-[4-(4-methylphenyl)furan-2-yl]-N-[4-[N-methyl-N-(tetrahydropyran-4-yl)aminomethyl]cyclohexyl]acrylamide] showed a melting point of 165 to 167 °C. For `Cc1ccc(-c2ccc3c(c2)CN(C(=O)Nc2ccc(C[N+]4(C)CCCCC4)cc2)CC3)cc1.[Cl-]`, the melting point was 179 to 180 °C (dec.). For `COc1cccc(COc2ccc3c(c2)C=C(C(=O)Nc2ccc(CN(C)C4CCOCC4)cc2)CCS3(=O)=O)c1` [Compound 117, 7-(3-methoxybenzyloxy)-N-[4-[[N-methyl-N-(tetrahydropyran-4-yl)amino]methyl]phenyl]-1,1-dioxo-2,3-dihydro-1-benzothiepine-4-carboxamide], the melting point was 181 to 185 °C. `Cc1ccc(C2=Cc3cc(C(=O)N[C@H]4CC[C@H](CN(C)C5CCOCC5)CC4)ccc3OC2)cc1` [Compound 68, trans-3-(4-methylphenyl)-N-[4-[N-methyl-N-(tetrahydropyran-4-yl)aminomethyl]cyclohexyl]-2H-1-benzopyran-6-carboxamide] showed a melting point of 205 to 207 °C. With `CCCOc1cccc(Oc2ccc3c(c2)C=C(C(=O)Nc2ccc(CN(C)C4CCOCC4)cc2)CCS3(=O)=O)c1` [Compound 112, N-[4-[[N-methyl-N-(tetrahydropyran-4-yl)amino]methyl]phenyl]-7-(3-propoxyphenoxy)-1,1-dioxo-2,3-dihydro-1-benzothiepine-4-carboxamide] the melting point was 143 to 144 °C. Work on `Cc1ccc(-c2ccc3c(c2)C=C(C(=O)NC2CCN(CC4CCCCC4)CC2)CCO3)cc1` [Compound 55, N-(1-cyclohexylmethylpiperidin-4-yl)-7-(4-methylphenyl)-2,3-dihydro-1-benzooxepine-4-carboxamide] yielded a melting point of 180 to 181 °C. `C[N+]1(Cc2ccc(NC(=O)c3cccc(OCc4ccccc4)c3)cc2)CCCCC1.[I-]` [Compound 87, 1-[4-(3-benzyloxybenzoylamino)benzyl]-1-methylpiperidinium iodide] gave a melting point of 192 to 194 °C. With `Cc1ccc(COc2cccc(C(=O)Nc3ccc(CN4CCCCC4)cc3)c2)cc1` [Compound 85, 3-(4-methylbenzyloxy)-4′-(piperidinomethyl)benzanilide] the melting point was 153 to 155 °C. `Cc1ccc(COc2cccc(C(=O)Nc3ccc(C[N+]4(C)CCCCC4)cc3)c2)cc1.[I-]` [Compound 88, 1-methyl-1-[4-[3-(4-methylbenzyloxy)benzoylamino]benzyl]piperidinium iodide] gave a melting point of 210 to 212 °C. In the case of `CCOc1ccccc1COc1ccc2c(c1)C=C(C(=O)Nc1ccc(CN(C)C3CCOCC3)cc1)CCS2(=O)=O` [Compound 101, 7-[(2-ethoxybenzyl)oxy]-N-[4-[[N-methyl-N-(tetrahydropyran-4-yl)amino]methyl]phenyl]-1,1-dioxo-2,3-dihydro-1-benzothiepine-4-carboxamide], the melting point is reported as 211 to 214 °C. Work on `Cc1ccc(-c2ccc3c(c2)C=C(C(=O)Nc2ccc(C(=N)N)cc2)CCO3)cc1.Cl` yielded a melting point of 294 to 296 °C. `Cc1ccc(-c2ccc3c(c2)C=C(CN2CCC(NC4CCOCC4)CC2)CCO3)cc1` [Compound 80, 1-(7-(4-methylphenyl)-2,3-dihydro-1-benzooxepin-4-yl)methyl-4-((tetrahydropyran-4-yl)amino)piperidine] showed a melting point of 101 to 103 °C. For `CCCOc1ccc(Oc2ccc3c(c2)C=C(C(=O)Nc2ccc(CN(C)C4CCOCC4)cc2)CCS3(=O)=O)cc1` [Compound 111, N-[4-[[N-methyl-N-(tetrahydropyran-4-yl)amino]methyl]phenyl]-7-(4-propoxyphenoxy)-1,1-dioxo-2,3-dihydro-1-benzothiepine-4-carboxamide], the melting point was 139 to 141 °C. `Cc1ccc(-c2ccc3c(c2)C=C(C(=O)Nc2ccc(C4=NCCN4)cc2)CCO3)cc1` [Compound 92, N-[4-(2-imidazolin-2-yl)phenyl]-7-(4-methylphenyl)-2,3-dihydro-1-benzooxepine-4-carboxamide] gave a melting point of 282 to 283 °C. With `COC(=O)N1CCN=C1Cc1ccc(NC(=O)C2=Cc3cc(-c4ccc(C)cc4)ccc3OCC2)cc1` [Compound 96, N-[4-[(1-methoxycarbonyl-2-imidazolin-2-yl)methyl]phenyl]-7-(4-methylphenyl)-2,3-dihydro-1-benzooxepine-4-carboxamide] the melting point was 170 to 171 °C. Compound `CCCOCc1ccccc1Oc1ccc2c(c1)C=C(C(=O)Nc1ccc(CN(C)C3CCOCC3)cc1)CCS2(=O)=O` [Compound 115, N-[4-[[N-methyl-N-(tetrahydropyran-4-yl)amino]methyl]phenyl]-7-(2-propoxymethylphenoxy)-1,1-dioxo-2,3-dihydro-1-benzothiepine-4-carboxamide] has a melting point of 162 to 164 °C. For `Cc1ccc(-c2ccc3nc(C)c(C(=O)N[C@H]4CC[C@H](CN(C)C5CCOCC5)CC4)cc3c2)cc1` [Compound 70, trans-2-methyl-6-(4-methylphenyl)-N-[4-[N-methyl-N-(tetrahydropyran-4-yl)aminomethyl]cyclohexyl]quinoline-3-carboxamide], the melting point was 163 to 165 °C. In the case of `CCOCCOc1ccc(COc2ccc3c(c2)C=C(C(=O)Nc2ccc(CN(C)C4CCOCC4)cc2)CCS3(=O)=O)cc1` [Compound 107, N-[4-[[N-methyl-N-(tetrahydropyran-4-yl)amino]methyl]phenyl]-7-[[4-(2-ethoxyethoxy)benzyl]oxy]-1,1-dioxo-2,3-dihydro-1-benzothiepine-4-carboxamide], the melting point is reported as 185 to 187 °C. Compound `CCCOCCOc1ccccc1COc1ccc2c(c1)C=C(C(=O)Nc1ccc(CN(C)C3CCOCC3)cc1)CCS2(=O)=O` [Compound 99, N-[4-[[N-methyl-N-(tetrahydropyran-4-yl)amino]methyl]phenyl]-7-[[2-(2-propoxyethoxy)benzyl]oxy]-1,1-dioxo-2,3-dihydro-1-benzothiepine-4-carboxamide] has a melting point of 136 to 138 °C. For `CCCOc1cccc(CCOc2ccc3c(c2)C=C(C(=O)Nc2ccc(CN(C)C4CCOCC4)cc2)CCS3(=O)=O)c1` [Compound 105, N-[4-[[N-methyl-N-(tetrahydropyran-4-yl)amino]methyl]phenyl]-7-[(3-propoxyphenethyl)oxy]-1,1-dioxo-2,3-dihydro-1-benzothiepine-4-carboxamide], the melting point was 153 to 154 °C. `C[N+]1(Cc2ccc(NC(=O)c3cccc(OCc4cccc5ccccc45)c3)cc2)CCCCC1.[I-]` [Compound 89, 1-methyl-1-[4-[3-(1-naphthylmethoxy)benzoylamino]benzyl]piperidinium iodide] showed a melting point of 211 to 213 °C. For `COc1ccccc1COc1ccc2c(c1)C=C(C(=O)Nc1ccc(CN(C)C3CCOCC3)cc1)CCS2(=O)=O` [Compound 102, 7-[(2-methoxybenzyl)oxy]-N-[4-[[N-methyl-N-(tetrahydropyran-4-yl)amino]methyl]phenyl]-1,1-dioxo-2,3-dihydro-1-benzothiepine-4-carboxamide], the melting point was 223 to 225 °C. Compound `Cc1ccc(-c2ccc3c(c2)C=C(C(=O)N2CCC(N)CC2)CCO3)cc1` [Compound 76, 4-amino-1-(7-(4-methylphenyl)-2,3-dihydro-1-benzooxepine-4-carbonyl)piperidine] has a melting point of 123 to 127 °C. Compound `CCCc1ccc(Oc2ccc3c(c2)C=C(C(=O)Nc2ccc(CN(C)C4CCOCC4)cc2)CCS3(=O)=O)cc1` [Compound 113, N-[4-[[N-methyl-N-(tetrahydropyran-4-yl)amino]methyl]phenyl]-7-(4-propylphenoxy)-1,1-dioxo-2,3-dihydro-1-benzothiepine-4-carboxamide] has a melting point of 147 to 149 °C. `CCOCCOc1ccccc1COc1ccc2c(c1)C=C(C(=O)Nc1ccc(CN(C)C3CCOCC3)cc1)CCS2(=O)=O` [Compound 104, 7-[[2-(2-ethoxyethoxy)benzyl]oxy]-N-[4-[[N-methyl-N-(tetrahydropyran-4-yl)amino]methyl]phenyl]-1,1-dioxo-2,3-dihydro-1-benzothiepine-4-carboxamide] gave a melting point of 132 to 136 °C. Work on `CCNC(=N)c1ccc(NC(=O)C2=Cc3cc(-c4ccc(C)cc4)ccc3OCC2)cc1.Cl` yielded a melting point greater than 300 °C. In the case of `Cc1ccc(C2=Cc3cc(C(=O)Nc4ccc(C[N+](C)(C)C5CCOCC5)cc4)ccc3OC2)cc1.[I-]` [Compound 28, N,N-dimethyl-N-[4-[[3-(4-methylphenyl)-2H-1-benzopyran-6-carbonyl]amino]benzyl]-4-tetrahydropyranylammonium iodide], the melting point is reported as 215 to 218 °C (dec.).
